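Five concentrations, 48 hours, 96-well plates. GI50 is the concentration that inhibits growth by half.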 The source made the active and inactive calls. No stated cut-off is given here; in the data, active = GI50 up to about 1.1 µM and inactive = higher.
Key:
Assay in all cases: NCI tumour cell line growth inhibition, 48 h
SF-268 = system: SF-268
A498 = system: A498
MDA-MB-231 = system: MDA-MB-231
K562 = system: K562
T47D = system: T47D
SNB-19 = system: SNB-19
UACC-257 = system: UACC-257
UACC-62 = system: UACC-62
ACHN = system: ACHN
SF-295 = system: SF-295
KM12 = system: KM12
CCRF-CEM = system: CCRF-CEM
CAKI-1 = system: CAKI-1
HCT-15 = system: HCT-15
SK-MEL-28 = system: SK-MEL-28
OVCAR-4 = system: OVCAR-4
NCI-H522 = system: NCI-H522
COLO 205 = system: COLO 205
MOLT-4 = system: MOLT-4
OVCAR-8 = system: OVCAR-8

Structure (SMILES) | GI50 (SF-268) | GI50 (A498) | GI50 (MDA-MB-231) | GI50 (K562) | GI50 (T47D) | GI50 (SNB-19) | GI50 (UACC-257) | GI50 (UACC-62) | GI50 (ACHN) | GI50 (SF-295) | GI50 (KM12) | GI50 (CCRF-CEM) | GI50 (CAKI-1) | GI50 (HCT-15) [µM] | GI50 (SK-MEL-28) | GI50 (OVCAR-4) | GI50 (NCI-H522) | GI50 (COLO 205) | GI50 (MOLT-4) | GI50 (OVCAR-8)
C[C@H](O)C1CC(Cn2nnc3c(N)ncnc32)C1(C)C (some centres not stated) | > 100 µM (inactive) | > 100 µM (inactive) | > 100 µM (inactive) | < 0.01 µM (active) | > 100 µM (inactive) | > 100 µM (inactive) | > 100 µM (inactive) | 5.36 µM (inactive) | > 100 µM (inactive) | > 100 µM (inactive) | > 100 µM (inactive) | > 100 µM (inactive) | > 100 µM (inactive) | > 100 | > 100 µM (inactive) | > 100 µM (inactive) |  |  |  | 
O=C1CC2C=CC(O)C(C1)C2 (configuration not stated) | > 100 µM (inactive) | > 100 µM (inactive) | > 100 µM (inactive) | > 100 µM (inactive) | > 100 µM (inactive) | > 100 µM (inactive) | > 100 µM (inactive) | > 100 µM (inactive) | > 100 µM (inactive) | > 100 µM (inactive) | > 100 µM (inactive) | > 100 µM (inactive) |  | > 100 | > 100 µM (inactive) | > 100 µM (inactive) | > 100 µM (inactive) | > 100 µM (inactive) | > 100 µM (inactive) | > 100 µM (inactive)
N#CC(C#N)=C1c2ccccc2C(=NN)c2ccccc21 | > 61.4 µM (inactive) | > 28.7 µM (inactive) | > 79.8 µM (inactive) | > 100 µM (inactive) | 0.508 µM (active) | > 100 µM (inactive) | > 100 µM (inactive) | > 43.5 µM (inactive) | 12.3 µM (inactive) | 4.83 µM (inactive) | > 100 µM (inactive) | > 100 µM (inactive) | > 25.7 µM (inactive) | > 100 | > 100 µM (inactive) |  | 3.58 µM (inactive) | > 100 µM (inactive) | > 100 µM (inactive) | > 100 µM (inactive)
NC1=CN2c3ccccc3N(CC(=O)O)C2C=C1 (configuration not stated) | > 100 µM (inactive) | > 100 µM (inactive) | > 100 µM (inactive) | > 100 µM (inactive) | > 100 µM (inactive) | > 100 µM (inactive) | > 100 µM (inactive) | > 100 µM (inactive) | > 100 µM (inactive) | > 100 µM (inactive) | > 100 µM (inactive) | > 100 µM (inactive) | > 100 µM (inactive) | > 100 | > 100 µM (inactive) | > 100 µM (inactive) |  | > 100 µM (inactive) | > 100 µM (inactive) | > 100 µM (inactive)
COP(=O)(Cc1ccc(/C=C/C#N)o1)OC | > 100 µM (inactive) | > 100 µM (inactive) | > 100 µM (inactive) | > 100 µM (inactive) | > 100 µM (inactive) | > 100 µM (inactive) |  | > 100 µM (inactive) |  |  | > 100 µM (inactive) | > 100 µM (inactive) |  | > 100 | > 100 µM (inactive) | > 100 µM (inactive) | > 100 µM (inactive) | > 100 µM (inactive) | > 100 µM (inactive) | > 100 µM (inactive)
CCN(CC)P(=O)(c1ccc2c(c1)OCCOCCOCCOCCO2)N(CC)CC | > 100 µM (inactive) | > 100 µM (inactive) | > 100 µM (inactive) | > 100 µM (inactive) | > 100 µM (inactive) | > 100 µM (inactive) |  | > 100 µM (inactive) | > 100 µM (inactive) | > 100 µM (inactive) | > 100 µM (inactive) | > 100 µM (inactive) | > 100 µM (inactive) | > 100 | > 100 µM (inactive) |  | > 100 µM (inactive) | > 100 µM (inactive) | > 100 µM (inactive) | > 100 µM (inactive)
CCc1c[n+]([O-])c(C)cc1[N+](=O)[O-] | > 100 µM (inactive) | > 100 µM (inactive) | 22.8 µM (inactive) | 48.6 µM (inactive) | > 100 µM (inactive) | > 100 µM (inactive) | > 100 µM (inactive) | 49.9 µM (inactive) | 17.7 µM (inactive) | > 100 µM (inactive) | 45.4 µM (inactive) | > 100 µM (inactive) | 40.4 µM (inactive) | 18.8 | > 100 µM (inactive) |  | 55.3 µM (inactive) | 15.6 µM (inactive) | > 100 µM (inactive) | 46.2 µM (inactive)
O=C1C=CC=C/C1=C1\N=C(c2ccccc2OCC(=O)c2ccc(Br)cc2)SS1 | 32 µM (inactive) | > 100 µM (inactive) | > 10 µM (inactive) | > 100 µM (inactive) | > 100 µM (inactive) | > 100 µM (inactive) | > 100 µM (inactive) | 23.1 µM (inactive) | 62.7 µM (inactive) | 28.2 µM (inactive) | > 100 µM (inactive) | > 100 µM (inactive) | 34.6 µM (inactive) | > 100 | > 100 µM (inactive) | 40.1 µM (inactive) |  | > 100 µM (inactive) | > 10 µM (inactive) | 93.5 µM (inactive)
CC1(C)[C@@H](Cn2cc(I)c(=O)[nH]c2=O)CC[C@@]1(C)CO | > 100 µM (inactive) | > 100 µM (inactive) | > 100 µM (inactive) | 45.1 µM (inactive) | > 100 µM (inactive) | > 100 µM (inactive) | > 100 µM (inactive) | > 100 µM (inactive) | > 100 µM (inactive) | > 100 µM (inactive) | > 100 µM (inactive) | > 100 µM (inactive) | > 100 µM (inactive) | > 100 | > 100 µM (inactive) | > 100 µM (inactive) |  | > 100 µM (inactive) |  | 
CCOP(=O)(OCC)/C(C#N)=C/c1nccn1C | > 100 µM (inactive) | > 100 µM (inactive) | > 100 µM (inactive) | > 100 µM (inactive) | > 100 µM (inactive) | > 100 µM (inactive) | > 100 µM (inactive) |  | > 100 µM (inactive) | > 100 µM (inactive) | > 100 µM (inactive) | > 100 µM (inactive) |  | > 100 | > 100 µM (inactive) |  | > 100 µM (inactive) | > 100 µM (inactive) | > 100 µM (inactive) | > 100 µM (inactive)
CC1(C)C=C(/C=N/Nc2ccc([N+](=O)[O-])cc2)C(C#N)=C(O)C1(C#N)C#N | > 100 µM (inactive) |  | > 100 µM (inactive) | > 100 µM (inactive) | > 100 µM (inactive) | > 100 µM (inactive) | > 100 µM (inactive) | > 100 µM (inactive) | > 100 µM (inactive) | > 100 µM (inactive) | > 100 µM (inactive) | > 100 µM (inactive) | > 100 µM (inactive) | > 100 | > 100 µM (inactive) | > 100 µM (inactive) | > 100 µM (inactive) | > 100 µM (inactive) | > 100 µM (inactive) | > 100 µM (inactive)
COc1ccc(/C=N/n2c(C)n[nH]c2=O)cc1 | > 100 µM (inactive) | > 100 µM (inactive) | > 100 µM (inactive) | > 100 µM (inactive) | > 100 µM (inactive) | > 100 µM (inactive) | > 100 µM (inactive) | > 100 µM (inactive) | > 100 µM (inactive) | > 100 µM (inactive) | > 100 µM (inactive) | > 100 µM (inactive) | > 100 µM (inactive) | > 100 | > 100 µM (inactive) | 42.8 µM (inactive) |  | > 100 µM (inactive) | > 100 µM (inactive) | > 100 µM (inactive)
Cc1cc2nc3c(N)nn(CCCN(C)C)c3nc2cc1C | > 100 µM (inactive) | > 100 µM (inactive) | 60.5 µM (inactive) |  | > 100 µM (inactive) | > 100 µM (inactive) | 97.5 µM (inactive) | 95.7 µM (inactive) | 60.3 µM (inactive) | > 100 µM (inactive) | 93.8 µM (inactive) |  | > 100 µM (inactive) | > 100 | > 100 µM (inactive) | > 100 µM (inactive) |  | 55 µM (inactive) |  | 83 µM (inactive)
CN(C)/C=N/CCN1CCOCC1 | > 100 µM (inactive) | > 100 µM (inactive) | > 100 µM (inactive) | > 100 µM (inactive) | > 100 µM (inactive) | > 100 µM (inactive) | > 100 µM (inactive) | > 100 µM (inactive) | > 100 µM (inactive) | > 100 µM (inactive) |  | > 100 µM (inactive) |  | > 100 | 57.3 µM (inactive) | > 100 µM (inactive) | > 100 µM (inactive) | > 100 µM (inactive) | > 100 µM (inactive) | > 100 µM (inactive)
Nc1ccn([C@H]2CO[C@@H](CO)O2)c(=O)n1 | 11.4 µM (inactive) |  | > 55.7 µM (inactive) | 26.1 µM (inactive) | > 35.6 µM (inactive) | 4.26 µM (inactive) | 97.7 µM (inactive) | 2.37 µM (inactive) | 0.106 µM (active) | 1.2 µM (inactive) | > 100 µM (inactive) | 0.238 µM (active) | 0.222 µM (active) | 5.4 | 15.7 µM (inactive) | > 100 µM (inactive) | 7.03 µM (inactive) | 83 µM (inactive) | 0.28 µM (active) | 1.51 µM (inactive)
O=C1c2c(O)cccc2Cc2cc(CO)cc(O)c21 | 2.05 µM (inactive) | 4.22 µM (inactive) | 2.3 µM (inactive) | 1.99 µM (inactive) | 2.96 µM (inactive) | 2.49 µM (inactive) | 2.14 µM (inactive) | 2.09 µM (inactive) | 2.94 µM (inactive) | 1.52 µM (inactive) |  | 3.28 µM (inactive) |  | 3.22 | 3.96 µM (inactive) | 1.07 µM (active) |  | 1.87 µM (inactive) | 2.96 µM (inactive) | 2.74 µM (inactive)

From ChEMBL document CHEMBL1201862, “PubChem BioAssay data set” (2004)
